According to patent US20210292438A1, “CONDITIONAL INTERNALIZATION OF PEGYLATED AGENTS BY PRETARGETING BI-SPECIFIC PEG-BINDING ANTIBODIES FOR DIAGNOSIS AND THERAPY” (ACADEMIA SINICA, priority 2017, published 2021):

Assays:
[1] = system: human MDA-MB-468 TNBC or MDA-MB-231 TNBC xenografts; assay: Anti-tumor activity of pre-targeted PEG engager in xenografts; assay type: in vivo, SCID mice; conditions: i.v. once a week for 4 weeks; engager 5 h before drug; free doxorubicin 3 mg/kg, Doxisome 1 mg/kg
Procedure: Anti-tumor activity of PEG engager was tested in mice bearing human MDA-MB-468 TNBC or MDA-MB-231 TNBC xenografts following the procedure below.
Groups of severe combined immunodeficiency (SCID) mice bearing 44.7±10.7 mm^3 MDA-MB-231 (n=6) or 84.3±4.3 mm^3 subcutaneous MDA-MB-468 (n=8) tumors on their right flanks were intravenously injected with PBS or with 6 or 18 mg/kg PEG engagers. After 5 h, the mice were intravenously administrated with free doxorubicin (3 mg/kg) or Doxisome (1 mg/kg or 3 mg/kg). This treatment was repeated once a week for a total of 4 weeks. Tumour sizes were measured every 7 days.

[2] = SCID mice; cited from earlier work

COc1cccc2c1C(=O)c1c(O)c3c(c(O)c1C2=O)C[C@@](O)(C(=O)CO)C[C@@H]3O[C@H]1C[C@H](N)[C@H](O)[C@H](C)O1 [doxorubicin]
tumor growth [1]: suppressed tumor growth
maximum-tolerated dose [2]: 2.5 to 3 mg/kg
